Assay results taken from US6900194B1, “Use of substituted 4-biarylbutyric and 5-biarylpentanoic acid derivatives as matrix metalloprotease inhibitors for the treatment of respiratory diseases” (Bayer Aktiengesellschaft, priority 1998, dated 2005).

Tests used:
[1] = system: Human alveolar macrophages; settings: read-out: IC50, inhibition of MCP-1-induced trafficking of human alveolar macrophages across artificial basement membrane; Matrigel; human MCP-1 5 ng/ml; 48-98 h; + or − lipopolysaccharide
Method: (§1) In vitro Functional Tests • 1. Human alveolar macrophages • Human alveolar macrophages were obtained by bronchoscopy of healthy smoking volunteers. Cells were spun and resuspended at 2×10^6/ml. Trafficking of alveolar macrophages (+or −lipopolysaccharide 2.5 μg.ml) across an artificial basement membrane (Matrigel) was induced by human MCP-1 (5 ng/ml) over a 48-98 h period. […] Murine peritoneal macrophages • Murine macrophages were obtained from mice 5 days after an intraperitoneal injection of thioglycollate. Cells were spun and resuspended at 2×10^6/ml. Trafficking of peritoneal macrophages across an artificial basement membrane (Matrigel) was induced by murine MCP-1 (5 ng/ml) over a 48-98 h period. […] LPS Induced TNFα Production in Mice

[2] = system: Murine peritoneal macrophages; settings: read-out: IC50, inhibition of trafficking of murine peritoneal macrophages across artificial basement membrane; Matrigel; murine MCP-1 5 ng/ml; 48-98 h
Method: as §1

[3] = target: T1, MMP-12 (Macrophage Elastase) (Homo sapiens, UniProt P39900); test: P218 quenched fluorescence assay, MMP-12; assay type: biochemical; settings: table 3
T1 construct: made in house; host or cells: E. coli BL21 (DE3)
From the text: P218 Quenched Fluorescence Assay for MMP Inhibition:
This assay is adapted from the one described by Knight et al., FEBS Letters, 296, 263-266 (1992) for MMP-3 and a related substrate. The rate of hydrolysis of the synthetic substrate H-MCA-Pro-Lys-Pro-Leu-Ala-Leu-DPA-Ala-Arg-NH2 (P218) by the respective MMPs is monitored fluorometrically, using an excitation wavelength of 340 nm and an emission wavelength of 395 nm, in the presence or absence of the test compounds. The substrate is made up initially in 100% DMSO to a concentration of 1×10^−2 M, then diluted in assay buffer to a final concentration of 20 μM. Test compounds (10 mM in DMSO) are diluted in assay buffer at an initial concentration of 0.3-1000 nM. These are diluted to a final concentration in the assay from 0.03 nM to 100 nM. The reaction is initiated by the addition of substrate at a final concentration of 20 μM. The total assay volume in a 96 well microtitre plate is 150 μl, Cleavage of the substrate between the Leu-Ala residues allows the fluorescence of the MCA group to be detected on a fluorometer (Cytofluor II) following excitation at 340 nm and emission at 395 nm. Change in fluorescence is continually monitored for a 40 min period.
The Ki's are calculated using the method described by Williams and Morrison, Methods in Enzymology, 63, 437-467 (1979) to measure Ki apparent for tight binding inhibitors, and is summarised as follows: [I]0/(1−vi/v0)=Ki apparent ×vi/v0+[E]0 [I]0 and [E]0 are inhibitor and enzyme concentrations, and vi/v0 are reaction velocities with/without inhibitor. [I]0 is equal to IC50 when vi is half v0, so that: IC50=0.5×[E]0+Ki apparent
IC50's are determined at each enzyme concentration using Xlfit software. Ki apparent is then determined graphically from the plot of IC50 versus MMP concentration, using the intercepts to estimate Ki apparent. Thus, intercept values at IC50=0 and [E]0=0 are equal to −2×Ki apparent and Ki apparent, respectively. IC50 values are calculated using % inhibition values at each enzyme concentration, ensuring data is taken from the linear part of the reaction rate curves. The Ki can then be calculated from the equation: Ki=Ki apparent/[…] where S=substrate concentration and Km=dissociation constant.
The assay conditions are modified as follows for each of the MMPs used:
MMP-12 (Macrophage Elastase)
[…] is isolated according to the following procedure: Human GenePool cDNA libraries from human lung, spleen, and brain were obtained from Invitrogen (Groningen, The Netherlands). HPLC-purified oligonucleotides were purchased from BioTez (Berlin, Germany), E. coli strain DH5α from Life Technologies (Heidelberg, Germany), strain BL21(DE3) from Novagen (Heidelberg, Germany). Pfu DNA-Polymerase and pBlueScriptII-KS(+) were from Stratagene (Heidelberg, Germany). DNA plasmid and DANN gel isolation kits were purchased from Qiagen (Hilden, Germany). All restriction enzymes and DNA modifying enzymes were ordered from New England Biolabs (Schwalbach, Germany). HiTrapQ (5 ml) was from Pharmacia Biotech (Freiburg, Germany). Vydac C4-RP HPLC columns (214TP54: 300 Å, 5 μm, 4.6×250 mm; 214TP1022: 300 Å, 10 μm, 22×250 mm) were from Promochem (Wesel, Germany). Fluorogenic substrate P218 was purchased from Polypeptide Laboratories (Wolfenbüttel, Germany). Ultrapure urea was purchased from Schwarz-Mann (Cleveland, Ohio). Ready-to-use NuPAGE 10% Bis-Tris Polyacrylamide SDS-PAGE gels and NuPAGE 20×MOPS running buffer were obtained from Novex (Frankfurt/Main, Germany) 10% AMPA and all other chemicals were from Sigma (Deisenhofen, Germany). […]

T1 sequence (P39900 106-470): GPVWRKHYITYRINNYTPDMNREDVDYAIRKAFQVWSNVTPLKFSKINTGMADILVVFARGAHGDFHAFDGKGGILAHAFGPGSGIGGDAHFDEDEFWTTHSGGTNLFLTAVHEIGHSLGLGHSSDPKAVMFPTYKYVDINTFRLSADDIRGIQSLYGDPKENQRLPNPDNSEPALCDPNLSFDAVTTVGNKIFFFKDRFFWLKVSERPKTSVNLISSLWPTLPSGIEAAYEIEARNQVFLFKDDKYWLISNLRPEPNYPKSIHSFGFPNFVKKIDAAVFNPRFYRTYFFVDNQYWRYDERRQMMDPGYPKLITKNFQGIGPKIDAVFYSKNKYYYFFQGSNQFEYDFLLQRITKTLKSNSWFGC

Compound	IC50 [1]	IC50 [2]	IC50 [3]
O=C(c1ccc(-c2ccc(Cl)cc2)cc1)C1CCC(CN2C(=O)c3ccccc3C2=O)C1C(=O)O (stereo not drawn) [(1α,2β,5β)-2-{[4′-chloro(1,1′-biphenyl)-4-yl]carbonyl}-5-[(1,3-dihydro-1,3-dioxo-2H-isoindol-2-yl)methyl]-cyclopentane carboxylic acid]	≤ 1000 nM	≤ 1000 nM	
CCCOc1ccc2c(c1)C(=O)N(CCC(CC(=O)c1ccc(-c3ccc(Cl)cc3)cc1)C(=O)O)C2=O (stereo not shown) [C-V]			1.7 nM
O=C(O)[C@H]1[C@H](CN2C(=O)c3cc4ccccc4cc3C2=O)CC[C@@H]1C(=O)c1ccc(-c2ccc(Cl)cc2)cc1 (racemic) [C-XVIII]			1 nM
O=C(CC(CCN1C(=O)c2ccccc2C1=O)C(=O)O)c1ccc(-c2ccc(OCc3ccccc3)cc2)cc1 (stereo not shown) [C-XXII]			1.6 nM
O=C(O)[C@H]1[C@H](CN2C(=O)c3cc(Cl)c([N+](=O)[O-])cc3C2=O)CC[C@@H]1C(=O)c1ccc(-c2ccc(Cl)cc2)cc1 (racemic) [C-XXX]			4.5 nM
CCCCCOc1ccc(-c2ccc(C(=O)CC(CCN3C(=O)c4ccccc4C3=O)C(=O)O)cc2)cc1 (stereo not shown) [C-III]			2.8 nM
